One data set deals with Septoria tritici. The data set is described as follows: Microtest No. 1: activity against the Septoria leaf spot pathogen Septoria tritici in the microtiter test. The class given is cell-based. Conditions: 125 ppm, day 7 after inoculation, absorption at 405 nm; active compound-free control = 100%. The method, then: Microtest No. 1—Activity Against the Septoria Leaf Spot Pathogen Septoria tritici in the Microtiter Test The stock solution was pipetted into a microtiter plate (MTP) and diluted with an aqueous malt-based fungus nutrient medium to the stated active compound concentration. An aqueous spore suspension of Septoria tritici was then added. The plates were placed in a water vapor-saturated chamber at temperatures of 18° C. On day 7 after the inoculation, the MTPs were measured in an absorption photometer at 405 nm. The measured parameters were compared to the growth of the active compound-free control variant (100%) and the fungus- and active compound-free blank value to determine the relative growth in % of the pathogens in the individual active compounds.

The next data set has as its system Pyricularia oryzae. The class given is cell-based. Conditions: 125 ppm, day 7 after inoculation, absorption at 405 nm; active compound-free control = 100%.
For data set [1], the system named is Erysiphe [syn. Blumeria] graminis forma specialis. tritici. As to the kind of experiment: Activity against mildew of wheat caused by Erysiphe [syn. Blumeria] graminis forma specialis tritici (greenhouse). The data set is classed as in vivo, Erysiphe graminis f. sp. tritici. The conditions noted are these: 250 ppm, wheat seedlings, protective, assessed after 7 days, % of total leaf area; control 90% infected.

The subject of the next data set is Puccinia recondita. As to the kind of experiment: Curative activity against brown rust of wheat caused by Puccinia recondita (greenhouse). The class given is in vivo. Conditions: 63 ppm, wheat sprayed 1 day after inoculation (curative), 7 days; untreated control 90% infected. As for the experimental part:
The solution was then made up to 100 ml with water. This stock solution was diluted to the active compound concentration stated below using the solvent/emulsifier/water mixture described. Curative Activity Against Brown Rust of Wheat Caused by Puccinia recondita Leaves of potted wheat seedlings of the cultivar “Kanzler” were inoculated with a spore suspension of brown rust (Puccinia recondita). The pots were then placed into a chamber with high atmospheric humidity (90-95%) at 20-22° C. for 24 hours. During this time, the spores germinated and the germ tubes penetrated into the leaf tissue. The next day, the infected plants were sprayed to runoff point with the active compound solution described above having the concentration of active compound stated below. After the spray coating had dried on, the test plants were cultivated in a greenhouse at temperatures between 20 and 22° C. and at 65 to 70% relative atmospheric humidity for 7 days. The extent of the rust fungus development on the leaves was then determined.

The structures appear in SMILES notation.

The melting point is the temperature, or range, at which the solid turns liquid. Molecule `CC1CCCN(c2nc(-n3cncn3)nc(Cl)c2-c2c(F)cc(F)cc2F)O1` (centres unmarked) [Compound 21, 4-Chloro-6-(6-methyltetrahydro-2H-(1,2)-oxazin-2-yl)-2-(1,2,4-triazol-1-yl)-5-(2,4,6-trifluorophenyl)pyrimidine] displayed a melting point of 141 to 143 °C.
Turning to `COc1nc(Cl)c(-c2c(F)cc(F)cc2F)c(N(CC2CC2)OC)n1` [Compound 40], the relative growth with Septoria tritici and in the data set on Pyricularia oryzae was 0% throughout.
The molecule `CON(CC1CC1)c1nc(C#N)nc(Cl)c1-c1c(F)cccc1F` [Compound 35] showed an infection in data set [1] of 5%.
Turning to `CON(c1nc(C#N)nc(Cl)c1-c1c(F)cccc1Cl)C(C)C` [Compound 32], the relative growth in the data set on Septoria tritici and in the data set with Pyricularia oryzae was 0% each time.
Turning to `CONC(=N)c1nc(Cl)c(-c2c(F)cc(F)cc2F)c(N2CCCO2)n1` [Compound 17, N-Methoxy-4-chloro-6-(isoxazolidin-2-yl)-5-(2,4,6-trifluorophenyl)-2-pyrimidinecarboximidamide], the melting point is 192 to 193 °C.
Molecule `CON=C(N)c1nc(Cl)c(-c2c(F)cccc2Cl)c(N(CC2CC2)OC)n1` [Compound 33] gave an infection with Puccinia recondita of 0%.

Source of the values: patent publication US20090076047A1, “2-Substituted Hydroxylaminopyrimidine, Method for the Production and the Use Thereof in the Form of Pesticides” (priority 2005, published 2009).
